{"source": "paper PMC10857906", "about": "“PROTAC-mediated NR4A1 degradation as a novel strategy for cancer immunotherapy” (The Journal of Experimental Medicine, 2024)", "key": {"NR4A1 and VHL": {"molecular_target": "NR4A1 and VHL (Homo sapiens, UniProt P22736+P40337)", "sequence (P22736 whole entry)": "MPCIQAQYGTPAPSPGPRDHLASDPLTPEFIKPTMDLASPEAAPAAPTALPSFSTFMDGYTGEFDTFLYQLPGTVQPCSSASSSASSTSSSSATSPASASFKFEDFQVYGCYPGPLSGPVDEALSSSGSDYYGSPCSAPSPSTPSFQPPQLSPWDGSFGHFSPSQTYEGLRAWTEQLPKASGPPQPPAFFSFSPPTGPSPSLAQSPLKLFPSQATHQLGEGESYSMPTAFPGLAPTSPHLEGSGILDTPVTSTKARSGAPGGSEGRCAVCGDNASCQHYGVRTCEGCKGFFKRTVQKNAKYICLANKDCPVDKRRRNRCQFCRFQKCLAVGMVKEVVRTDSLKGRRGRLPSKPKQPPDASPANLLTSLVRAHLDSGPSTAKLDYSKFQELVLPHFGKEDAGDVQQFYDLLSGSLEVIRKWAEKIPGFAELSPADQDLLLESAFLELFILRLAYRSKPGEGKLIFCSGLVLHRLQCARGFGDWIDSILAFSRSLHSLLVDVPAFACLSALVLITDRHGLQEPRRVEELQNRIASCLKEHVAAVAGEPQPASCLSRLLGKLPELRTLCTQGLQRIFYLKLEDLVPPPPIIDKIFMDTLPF", "sequence (P40337 whole entry)": "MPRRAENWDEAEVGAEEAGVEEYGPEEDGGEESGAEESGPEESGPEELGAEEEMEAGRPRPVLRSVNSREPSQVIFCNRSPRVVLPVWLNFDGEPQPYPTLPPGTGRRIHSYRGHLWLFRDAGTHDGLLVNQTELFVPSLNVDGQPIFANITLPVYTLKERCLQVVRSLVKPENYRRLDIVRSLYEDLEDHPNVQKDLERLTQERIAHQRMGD", "sequence (Q15369 whole entry partner)": "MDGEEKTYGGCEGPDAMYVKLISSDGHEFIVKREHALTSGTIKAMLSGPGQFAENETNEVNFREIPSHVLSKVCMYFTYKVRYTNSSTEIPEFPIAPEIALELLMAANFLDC", "sequence (Q15370 whole entry partner)": "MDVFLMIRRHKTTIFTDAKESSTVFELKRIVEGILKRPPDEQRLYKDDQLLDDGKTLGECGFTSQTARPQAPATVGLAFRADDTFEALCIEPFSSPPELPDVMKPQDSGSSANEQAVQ", "assay": "Proximity ligation assay (PLA) for the NR4A1-VHL ternary complex", "format": "cell-based", "set-up": "endogenous in cells; host or cells: CHL-1 and A375 human melanoma cells", "conditions": "CHL-1 and A375 cells, 500 nM, 16 h, 0.5 μM MG132 pretreatment", "method": "5 × 10^4 CHL-1 and A375 cells were cultured in Nunc Lab-Tek Chamber Slide (177402; Thermo Fisher Scientific). The cells were treated with DMSO, 500 nM celastrol, and 500 nM NR-V04 for 16 h with MG132 inhibitor. The PLA was conducted with Duolink In Situ Red Starter Kit Mouse/Rabbit (DUO92101; Sigma-Aldrich) following the standard protocol. Additionally, a non-stain cell group was included as a negative control to account for background signal during PLA assay. The signal was detected using a confocal microscope (LSM 710; Zeiss). Primary antibody: NR4A1 (HPA059742, 2 μg/ml, isotype-rabbit; Sigma-Aldrich) and VHL (MA5-13940, 2 μg/ml, isotype-mouse; Thermo Fisher Scientific)."}, "NR4A1 [1]": {"molecular_target": "T1, NR4A1 (Homo sapiens, UniProt P22736)", "T1 construct": "NR-V04 effectively promoted the degradation of NR4A1 in two human melanoma cell lines within 16 h; endogenous in cells; host or cells: CHL-1, A375, WM164, M229 human melanoma cells", "T1 sequence (P22736 whole entry)": "as the sequence (P22736 whole entry) above", "assay": "NR4A1 degradation in CHL-1 human melanoma cells (immunoblotting)", "format": "cell-based", "conditions": "CHL-1 cells, 16 h", "method": "Human melanoma cell lines: A375 and CHL-1 (gifts from Dr. D. Zhou, the University of Texas Health Science Center, San Antonio, TX, USA) were cultured in Dulbecco’s Modified Eagles’ Medium (DMEM, D5796; Sigma-Aldrich), WM164 and M229 (gifts from Dr. K.S.M. Smalley’s lab) were cultured in RPMI-1640 (R8758; Sigma-Aldrich). Mouse melanoma cell lines: B16F10 (CRL-6475, ATCC) was cultured in DMEM, SW1 and SM1 (gift from Dr. K.S.M. Smalley, Moffitt Cancer Center, Tampa, FL, USA) were cultured in RPMI. Human epithelial kidney cell lines: HEK293T (293T, CRL-3216; ATCC) and Vhl-KO-293T (gift from Dr. D. Zhou, the University of Texas Health Science Center, San Antonio, TX, USA) were cultured in DMEM. Mouse colon cancer cell lines: MC38 (ENH204-FP; Kerafast Inc.) was cultured in DMEM supplemented with 1 mM glutamine, […] non-essential amino acids (11140050; Thermo Fisher Scientific), 1 mM sodium pyruvate (11360070; Thermo Fisher Scientific), and 10 mM HEPES (15630080; Thermo Fisher Scientific). All cell culturing media were supplemented with 10% fetal bovine serum (FBS, F2442; Sigma-Aldrich), 100 U/ml penicillin, and 100 µg/ml streptomycin (P4333; Sigma-Aldrich).\nSamples were lysed using radioimmunoprecipitation assay buffer (RIPA) lysis buffer (150 mM NaCl, 5 mM EDTA, 50 mM Tris pH 8.0, 0.5% sodium deoxycholate, 1% NP-40, 0.1% SDS) supplemented with 1 mM dithiothreitol and protease inhibitors. The lysates were separated by SDS-PAGE and analyzed using standard western blotting procedures ([Khan et al., 2019]). Antibodies: human NR4A1 (ab153914, 1:1,000; Abcam), mouse NR4A1 (14-5965-82, 1:1,000; Invitrogen), NR4A2 (AV38753, 1:1,000; Sigma-Aldrich), NR4A3 (TA804893, 1: 1,000; Thermo Fisher Scientific), VHL (68547, 1:1,000; Cell Signaling), β-actin (13E5, 1:5,000; Cell Signaling), β-tubulin (9F3, 1: 5,000; Cell Signaling), and GAPDH (D16H11, 1: 5,000; Cell Signaling) were employed for protein detection."}, "NR4A1 mRNA": {"system": "NR4A1 mRNA", "assay": "NR4A1 mRNA by qPCR in CHL-1 cells", "format": "cell-based, human", "conditions": "500 nM, ACTB as control", "method": "Total RNA was extracted from cells using RNeasy Kits (74004; QIAGEN) following the manufacturer’s instructions. cDNA synthesis was performed using SuperScript III Reverse Transcriptase (18080044; Thermo Fisher Scientific) with 100 ng RNA as the template. Amplification of cDNA was carried out using 2× PowerUP SYBR Green Master Mix (A25778; Thermo Fisher Scientific). Each reaction was conducted in triplicates and results were normalized to the expression of a housekeeping gene. Primer (Eurofins): human β-actin (forward sequence: 5′-CACCATTGGCAATGAGCGGTTC-3′; reverse sequence: 5′-AGGTCTTTGCGGATGTCCACGT-3′) and human NR4A1 (forward sequence: 5′-GGACAACGCTTCATGCCAGCAT-3′; reverse sequence: 5′-CCTTGTTAGCCAGGCAGATGTAC-3′)."}, "MC38 tumors": {"system": "MC38 tumors", "assay": "MC38 colon cancer syngeneic tumor model", "format": "in vivo, mouse", "conditions": "MC38 in WT mice, 1.8 mg/kg NR-V04 or 0.75 mg/kg celastrol i.p. twice a week from day 7", "excerpt": "(§1) 7–9-wk-old C57BL/6J, B6.129S2-Ighm^tm1Cgn/J (002288), B6.129S2-Nr4a1^tm1Jmi/J (NR4A1^−/−, 006187), and NOD-SCID interleukin-2 receptor gamma null (NSG) mice were purchased from Jackson Laboratories. For all studies involving NR-V04 and celastrol, the compounds were formulated in 50% phosal PG, 45% miglyol 810N, and 5% polysorbate 80 and administered via i.p. injection.\n(§2) For syngeneic tumor models, 5 × 10^5 cells MC38, Yumm1.7, and Yummer1.7, 1 × 10^5 cells of B16F10 were resuspended in PBS and implanted into 7–9-wk-old mice subcutaneously. For the tumor inhibition experiment, mice were treated with 1.8 mg/kg NR-V04 or 0.75 mg/kg celastrol by i.p. injection twice weekly. For the immune profile experiment, once tumors reached 0.5 cm in diameter, mice were treated with 1.8 mg/kg NR-V04 by i.p. injection twice weekly. For the toxicity experiment, male and female non-tumor-bearing mice were treated with 2 mg/kg NR-V04 for two doses in the first week and 5 mg/kg for another two doses in the second week. Blood samples were taken from the submandibular (facial) vein before each treatment and 42 days later for hematological analysis, and body weight was measured twice per week up to day 42. Mice were euthanized in accordance with the IACUC protocol once the largest tumors reached 2 cm in diameter, and tissues were collected for further analysis."}, "NR4A1 [2]": {"molecular_target": "NR4A1", "conditions": "ref Hu et al., 2017; read-out: binding affinity of celastrol to NR4A1 (Kd); cited from earlier work"}, "B16F10 melanoma": {"system": "B16F10 melanoma", "assay": "B16F10 melanoma syngeneic tumor model", "format": "in vivo, mouse", "conditions": "B16F10 in WT mice, 1.8 mg/kg NR-V04 or 0.75 mg/kg celastrol i.p. twice a week from day 7", "excerpt": "as §1, §2"}}, "data": [{"smiles": "CC1=C(O)C(=O)C=C2C1=CC=C1[C@@]2(C)CC[C@@]2(C)[C@@H]3C[C@](C)(C(=O)O)CC[C@]3(C)CC[C@]12C", "note": "[celastrol, reference compound]", "values": [{"measurement": "PLA signals (ternary complex formation NR4A1-VHL)", "setting": "NR4A1 and VHL", "result": "did not"}, {"measurement": "NR4A1 protein level, initial screening", "setting": "NR4A1 [1]; 250 nM, immunoblotting and densitometry", "result": "did not alter the protein level of NR4A1"}, {"measurement": "NR4A1 protein level, dose response", "setting": "NR4A1 [1]", "result": "did not change NR4A1 protein level"}, {"measurement": "NR4A1 mRNA level", "setting": "NR4A1 mRNA", "result": "increase in NR4A1 mRNA levels after 2 h"}, {"measurement": "tumor growth", "setting": "MC38 tumors", "result": "failure to inhibit tumor growth of MC38 tumors"}, {"measurement": "Kd", "setting": "NR4A1 [2]", "result": 290, "unit": "nM"}, {"measurement": "tumor growth", "setting": "B16F10 melanoma", "result": "increased growth of B16F10 tumors"}]}]}
